40 molecules from patent publication US8889676B2, “3-ureidoisoquinolin-8-yl derivatives” (Actelion Pharmaceuticals Ltd., priority 2011, dated 2014) can be followed below.

≈ marks a conversion by molar mass, not a printed value.

For the test, the system named is S. pneumoniae ATCC 49619. Kind of test: Minimal inhibitory concentration (MIC) by broth microdilution (CLSI M7-A7). The settings on record: Streptococcus pneumoniae, ATCC49619; cation-adjusted Mueller Hinton Broth supplemented with 3% (v/v) lysed horse blood; microdilution method. Type of test: cell-based, Streptococcus pneumoniae. The procedure: Minimal inhibitory concentrations (MICs; mg/l) were determined in cation-adjusted MuellerHinton Broth (supplemented with 3% (v/v) lysed horse blood for testing Streptococcus pneumoniae) by a microdilution method following the description given in “Methods for Dilution Antimicrobial Susceptibility Tests for Bacteria that Grow Aerobically”, Approved standard, 7th ed., a Clinical and Laboratory Standards Institute (CLSI) Document M7-A7, Wayne, Pa., USA, 2006.
In the case of `CCNC(=O)Nc1cc2c(-c3ccncc3)ccc(CNC(=O)OCC(O)CO)c2cn1.Cl` (racemic) [Example 103, (±)-[3-(3-ethyl-ureido)-5-pyridin-4-yl-isoquinolin-8-ylmethyl]-carbamic acid 2,3-dihydroxy-propyl ester hydrochloride], the MIC (usually the lowest concentration that inhibits growth of the organism) stood at 4 µg/mL. `C#CC(C)OC(=O)NCc1ccc(-c2ccncc2)c2cc(NC(=O)NCC)ncc12` (racemic) [Example 108, (±)-[3-(3-ethyl-ureido)-5-pyridin-4-yl-isoquinolin-8-ylmethyl]-carbamic acid 1-methyl-prop-2-ynyl ester] registered an MIC of 0.25 µg/mL (≈ 0.599 µM). `C#CCC(=O)NCc1cccc2cc(NC(=O)NCC)ncc12` [Example 1, but-3-ynoic acid [3-(3-ethyl-ureido)-isoquinolin-8-ylmethyl]-amide] registered an MIC of 2 µg/mL (≈ 6.44 µM). Regarding `CCNC(=O)Nc1cc2cccc(CNC(=O)c3ccncc3)c2cn1` [Example 2, N-[3-(3-ethyl-ureido)-isoquinolin-8-ylmethyl]-isonicotinamide], the MIC was 2 µg/mL (≈ 5.72 µM). Molecule `CCNC(=O)Nc1cc2cccc(CNC(C)=O)c2cn1` [Example 3, N-[3-(3-ethyl-ureido)-isoquinolin-8-ylmethyl]-acetamide] displayed a minimum inhibitory concentration (MIC) of 4 µg/mL (≈ 14 µM).

In turn, `CCNC(=O)Nc1cc2cccc(CNC(=O)c3ccccc3)c2cn1` [Example 4, N-[3-(3-ethyl-ureido)-isoquinolin-8-ylmethyl]-benzamide] yielded an MIC of 2 µg/mL (≈ 5.74 µM). To `CCNC(=O)Nc1cc2cccc(CNC(=O)CC#N)c2cn1` [Example 5, 2-cyano-N-[3-(3-ethyl-ureido)-isoquinolin-8-ylmethyl]-acetamide] belongs 4 µg/mL (≈ 12.8 µM); to `CCNC(=O)Nc1cc2cccc(CNC(=O)C3CCCCC3)c2cn1` [Example 6, cyclohexanecarboxylic acid [3-(3-ethyl-ureido)-isoquinolin-8-ylmethyl]-amide], 4 µg/mL (≈ 11.3 µM). For the molecule `CCNC(=O)Nc1cc2cccc(CNC(=O)CC3CC3)c2cn1` [Example 7, 2-cyclopropyl-N-[3-(3-ethyl-ureido)-isoquinolin-8-ylmethyl]-acetamide], the MIC was 2 µg/mL (≈ 6.13 µM). `CCNC(=O)Nc1cc2cccc(CNC(=O)CNC(C)=O)c2cn1` [Example 8, 2-acetylamino-N-[3-(3-ethyl-ureido)-isoquinolin-8-ylmethyl]-acetamide] gave a minimum inhibitory concentration (MIC) of 8 µg/mL (≈ 23.3 µM). The molecule `C#CC(=O)NCc1cccc2cc(NC(=O)NCC)ncc12` [Example 9, propynoic acid [3-(3-ethyl-ureido)-isoquinolin-8-ylmethyl]-amide] had an MIC of 2 µg/mL (≈ 6.75 µM).

The molecule `CCNC(=O)Nc1cc2cccc(CNC(=O)c3cccnc3)c2cn1` [Example 10, N-[3-(3-ethyl-ureido)-isoquinolin-8-ylmethyl]-nicotinamide] had an MIC of 4 µg/mL (≈ 11.4 µM). To `CCNC(=O)Nc1cc2cccc(CNC(=O)c3ccccn3)c2cn1` [Example 11, pyridine-2-carboxylic acid [3-(3-ethyl-ureido)-isoquinolin-8-ylmethyl]-amide] belongs 2 µg/mL (≈ 5.72 µM); to `CCNC(=O)Nc1cc2cccc(CNC(=O)Cc3ccccc3)c2cn1` [Example 12, N-[3-(3-ethyl-ureido)-isoquinolin-8-ylmethyl]-2-phenyl-acetamide], 1 µg/mL (≈ 2.76 µM). On to `CCNC(=O)Nc1cc2cccc(CNC(=O)C3CC3)c2cn1` [Example 13, cyclopropanecarboxylic acid [3-(3-ethyl-ureido)-isoquinolin-8-ylmethyl]-amide], for which inhibition of growth (MIC) required 2 µg/mL (≈ 6.4 µM). To `CCNC(=O)Nc1cc2cccc(CNC(=O)C(C)(C)C)c2cn1` [Example 14, N-[3-(3-ethyl-ureido)-isoquinolin-8-ylmethyl]-2,2-dimethyl-propionamide] belongs 4 µg/mL (≈ 12.2 µM); to `CCNC(=O)Nc1cc2cccc(CNC(=O)COC)c2cn1` [Example 15, N-[3-(3-ethyl-ureido)-isoquinolin-8-ylmethyl]-2-methoxy-acetamide], 4 µg/mL (≈ 12.6 µM). Consider `CCNC(=O)Nc1cc2cccc(CNC(=O)c3ncc[nH]3)c2cn1` [Example 16, 1H-imidazole-2-carboxylic acid [3-(3-ethyl-ureido)-isoquinolin-8-ylmethyl]-amide], for which the MIC worked out at 4 µg/mL (≈ 11.8 µM). The result for `C#CCCC(=O)NCc1cccc2cc(NC(=O)NCC)ncc12` [Example 17, pent-4-ynoic acid [3-(3-ethyl-ureido)-isoquinolin-8-ylmethyl]-amide] reads 8 µg/mL (≈ 24.7 µM); that for `CCNC(=O)Nc1cc2cccc(CNC(=O)C(C)C)c2cn1` [Example 18, N-[3-(3-ethyl-ureido)-isoquinolin-8-ylmethyl]-isobutyramide], 4 µg/mL (≈ 12.7 µM). As for `CCNC(=O)Nc1cc2cccc(CNC(=O)CN(C)C)c2cn1` [Example 19, 2-dimethylamino-N-[3-(3-ethyl-ureido)-isoquinolin-8-ylmethyl]-acetamide], it took 8 µg/mL (≈ 24.3 µM) to inhibit growth (MIC). Molecule `CCNC(=O)Nc1cc2cccc(CNC(=O)c3cn[nH]n3)c2cn1` [Example 20, 2H-[1,2,3]triazole-4-carboxylic acid [3-(3-ethyl-ureido)-isoquinolin-8-ylmethyl]-amide] showed an MIC of 1 µg/mL (≈ 2.95 µM). Turning to `CCNC(=O)Nc1cc2cccc(CNC(=O)CCC(N)=O)c2cn1` [Example 21, N-[3-(3-ethyl-ureido)-isoquinolin-8-ylmethyl]-succinamide], the MIC amounted to 8 µg/mL (≈ 23.3 µM).

Regarding `CCNC(=O)Nc1cc2cccc(CNC(=O)c3cncn3C)c2cn1` [Example 22, 3-methyl-3H-imidazole-4-carboxylic acid [3-(3-ethyl-ureido)-isoquinolin-8-ylmethyl]-amide], the MIC came out at 4 µg/mL (≈ 11.4 µM). Molecule `CCNC(=O)Nc1cc2c(-c3ccncc3)ccc(CNC(=O)c3cccnc3)c2cn1` [Example 23, N-[3-(3-ethyl-ureido)-5-pyridin-4-yl-isoquinolin-8-ylmethyl]-nicotinamide] showed an MIC of 1 µg/mL (≈ 2.34 µM).

`CCNC(=O)Nc1cc2cccc(CNC(=O)OCC)c2cn1.Cl` [Example 24, [3-(3-ethyl-ureido)-isoquinolin-8-ylmethyl]-carbamic acid ethyl ester hydrochloride] returned an MIC of 4 µg/mL. The molecule `CCNC(=O)Nc1cc2cccc(CNC(=O)OCc3ccncc3)c2cn1.Cl` [Example 25, [3-(3-ethyl-ureido)-isoquinolin-8-ylmethyl]-carbamic acid pyridin-4-ylmethyl ester hydrochloride] returned an MIC of 2 µg/mL. Regarding `CCNC(=O)Nc1cc2cccc(CNC(=O)OCc3cncnc3)c2cn1.Cl` [Example 26, [3-(3-ethyl-ureido)-isoquinolin-8-ylmethyl]-carbamic acid pyrimidin-5-ylmethyl ester hydrochloride], the MIC stood at 4 µg/mL.

As to `CCNC(=O)Nc1cc2cccc(CNC(=O)OCCF)c2cn1.Cl` [Example 27, [3-(3-ethyl-ureido)-isoquinolin-8-ylmethyl]-carbamic acid 2-fluoro-ethyl ester hydrochloride], 4 µg/mL was the least that counted as inhibitory (MIC). In the case of `CCNC(=O)Nc1cc2cccc(CNC(=O)OCC3CC3)c2cn1.Cl` [Example 28, [3-(3-ethyl-ureido)-isoquinolin-8-ylmethyl]-carbamic acid cyclopropylmethyl ester hydrochloride], the lowest concentration to inhibit growth (MIC) was 4 µg/mL. To `CCNC(=O)Nc1cc2cccc(CNC(=O)OCc3ccncn3)c2cn1.Cl` [Example 29, [3-(3-ethyl-ureido)-isoquinolin-8-ylmethyl]-carbamic acid pyrimidin-4-ylmethyl ester hydrochloride] belongs 4 µg/mL.

Turning to `CCNC(=O)Nc1cc2cccc(CNC(=O)OC(C)C)c2cn1.Cl` [Example 30, [3-(3-ethyl-ureido)-isoquinolin-8-ylmethyl]-carbamic acid isopropyl ester hydrochloride], the lowest concentration to inhibit growth (MIC) was 4 µg/mL. Take `C#CCOC(=O)NCc1cccc2cc(NC(=O)NCC)ncc12.Cl` [Example 31, [3-(3-ethyl-ureido)-isoquinolin-8-ylmethyl]-carbamic acid prop-2-ynyl ester hydrochloride]: the MIC is 2 µg/mL.

Take `CCNC(=O)Nc1cc2cccc(CNC(=O)OCCC#N)c2cn1.Cl` [Example 32, [3-(3-ethyl-ureido)-isoquinolin-8-ylmethyl]-carbamic acid 2-cyano-ethyl ester hydrochloride]: the MIC was 4 µg/mL. The result for `CCNC(=O)Nc1cc2cccc(CNC(=O)OCc3cccnc3)c2cn1.Cl` [Example 33, [3-(3-ethyl-ureido)-isoquinolin-8-ylmethyl]-carbamic acid pyridin-3-ylmethyl ester hydrochloride] reads 4 µg/mL; that for `CCNC(=O)Nc1cc2cccc(CNC(=O)OCc3ccccn3)c2cn1.Cl` [Example 34, [3-(3-ethyl-ureido)-isoquinolin-8-ylmethyl]-carbamic acid pyridin-2-ylmethyl ester hydrochloride], 4 µg/mL; that for `CCNC(=O)Nc1cc2cccc(CNC(=O)OCc3ccn(C)n3)c2cn1.Cl` [Example 35, [3-(3-ethyl-ureido)-isoquinolin-8-ylmethyl]-carbamic acid (1-methyl-1H-pyrazol-3-yl)methyl ester hydrochloride], 4 µg/mL. For the molecule `CCNC(=O)Nc1cc2cccc(CNC(=O)OCc3ccccc3)c2cn1.Cl` [Example 36, [3-(3-ethyl-ureido)-isoquinolin-8-ylmethyl]-carbamic acid benzyl ester hydrochloride], the MIC stood at 4 µg/mL. In turn, `CCNC(=O)Nc1cc2cccc(CNC(=O)OCCOC)c2cn1.Cl` [Example 37, [3-(3-ethyl-ureido)-isoquinolin-8-ylmethyl]-carbamic acid 2-methoxy-ethyl ester hydrochloride] displayed an MIC of 4 µg/mL. On to `CCNC(=O)Nc1cc2cccc(CNC(=O)OCc3cncn3C)c2cn1.Cl` [Example 38, [3-(3-ethyl-ureido)-isoquinolin-8-ylmethyl]-carbamic acid 3-methyl-3H-imidazol-4-ylmethyl ester hydrochloride], for which it took 8 µg/mL to inhibit growth (MIC).
